According to patent US20220125745A1, “PHARMACEUTICAL COMPOSITION FOR CO-ADMINISTRATION OF ACIDOSIS-INDUCING DRUG” (HAIM BIO CO., LTD., priority 2018, published 2022):
Like-named read-outs stand apart in the source and are kept apart here.

Experiments:
[1] = test system: L132 cells (normal cells); assay: Lactate assay (luminescence) in L132 cells, candidate substance alone or combined with a substance that causes lactic acidosis; assay type: cell-based; details: L132; for Luminescence intensity (%), Berberine (10 μM) − / Luminescence intensity (%), Linezolid (200 μM) − / Luminescence intensity (%), Phenformin (100 μM) − / activity at 50 µM: candidate 50 μM alone, 24 h, vs negative control, mean ± SEM; for activity at 50 µM: Homo sapiens
Description: (§1) To identify the effects of administration of the candidate substances for lactic acidosis treatment as described in Example 1 in combination with the above-mentioned substances that cause lactic acidosis, A549 cells (cancer cells) or L132 cells (normal cells) were respectively seeded in 96- or 24-well plates at a concentration of 1×10^4 or 3×10^5 cells/well, and incubation was performed overnight. Administration of the candidate substance for acidosis treatment in combination with the substance that causes lactic acidosis was performed and incubation was further performed for 24 hours. For the candidate substances for acidosis treatment, each substance was administered at a uniform concentration of 50 μM; and for the substances that cause lactic acidosis, metformin was administered at 1 to 100 μM, isoniazid was administered at 1 to 500 μM, berberine was administered at 10 μM, linezolid was administered at 200 μM, and phenformin was administered at 100 μM. All substances were dissolved in dimethyl sulfoxide (DMSO, Sigma-Aldrich Corporation, St. Louis, Mo., USA), and the substances to be administered in combination were administered simultaneously. Subsequently, 50 μl of the cell culture solution obtained by being diluted with Dulbecco's Phosphate-Buffered Saline (DPBS; Wellgene, Korea), and 50 μl of the lactate assay reaction buffer (Promega, Madison, Wis., USA) were mixed and the mixture was added in a 96-well plate. Reaction was allowed to proceed at room temperature for 1 hour. Then, luminescence was measured with a spectrophotometer (Synergy HTX Multi-Reader; BioTek, Winooski, Vt., USA). At the same time, the number of cells in each sample was measured with a cell viability analysis kit (Cell Counting Kit-8; Dojindo Molecular Technologies, Inc., Kumamoto, Japan), and calculation was performed so that the lactic acid measurement value in each sample could be compared with that in the negative control for the same number of cells.

[2] = test system: A549 cells (cancer cells); assay: Lactate assay (luminescence) in A549 cells, candidate substance alone or combined with a substance that causes lactic acidosis; assay type: cell-based; details: A549; for Luminescence intensity (%), Berberine (10 μM) − / Luminescence intensity (%), Linezolid (200 μM) − / Luminescence intensity (%), Phenformin (100 μM) − / activity at 50 µM: candidate 50 μM alone, 24 h, vs negative control, mean ± SEM; for activity at 50 µM: Homo sapiens
Description: as §1

[3] = candidate 50 μM + berberine 10 μM, relative to berberine alone (PC)
[4] = candidate 50 μM + linezolid 200 μM, relative to linezolid alone (PC)
[5] = candidate 50 μM + phenformin 100 μM, relative to phenformin alone (PC)
[6] = no berberine, read-out: Luminescence intensity (%), Berberine (10 μM) −
[7] = no linezolid, read-out: Luminescence intensity (%), Linezolid (200 μM) −
[8] = no phenformin, read-out: Luminescence intensity (%), Phenformin (100 μM) −

SMILES	Lactic acid value vs. PC (%) [1, 3] [%]	Lactic acid-decreasing rate vs. PC (%) [1, 3] [%]	Lactic acid value vs. PC (%) [1, 4] [%]	Lactic acid-decreasing rate vs. PC (%) [1, 4] [%]	Lactic acid value vs. PC (%) [1, 5] [%]	Lactic acid-decreasing rate vs. PC (%) [1, 5] [%]	Luminescence intensity (%), Berberine (10 μM) − ([1]; no berberine) [%]	Luminescence intensity (%), Linezolid (200 μM) − ([1]; no linezolid) [%]	Lactic acid value vs. PC (%) [2, 3] [%]	Lactic acid-decreasing rate vs. PC (%) [2, 3] [%]	Lactic acid value vs. PC (%) [2, 4] [%]	Lactic acid-decreasing rate vs. PC (%) [2, 4] [%]	Lactic acid value vs. PC (%) [2, 5] [%]	Lactic acid-decreasing rate vs. PC (%) [2, 5] [%]	activity at 50 µM [1, 6] [%]	activity at 50 µM [1, 7] [%]	activity at 50 µM [1, 8] [%]	activity at 50 µM [2, 6] [%]	activity at 50 µM [2, 7] [%]	activity at 50 µM [2, 8] [%]	other results
CCN(CC)c1ccc(C=O)cc1 [DEAB, Diethylaminobenzaldehyde]	106.10	−6.10	105.21	−5.21	92.79	7.21	93.41 ± 2.71	93.41±2.71	91.95	8.05	87.66	12.34	94.28	5.72							Luminescence intensity (%), Phenformin (100 μM) − ([1]; no phenformin): 93.41 ± 2.71 %; Increase of lactic acid level as compared to the positive control group ([1]; in combination with linezolid, stated in text as an increase): 5.21%; Luminescence intensity (%), Berberine (10 μM) − ([2]; no berberine): 96.72 ± 0.78 %; Luminescence intensity (%), Linezolid (200 μM) − ([2]; no linezolid): 96.72 ± 0.78 %; Luminescence intensity (%), Phenformin (100 μM) − ([2]; no phenformin): 96.72 ± 0.78 %
O=C(O)c1cc(=O)c2ccccc2[nH]1 [Kynurenic acid]	90.59	9.41	93.53	6.47	91.70	8.30			101.87	−1.87	91.54	8.46	92.58	7.42	93.7 ± 1.3	93.7 ± 1.3	93.7 ± 1.3	93.9 ± 1.1	93.9 ± 1.1	93.9 ± 1.1	
N#CN [Cyanamide]	99.86	0.14	88.99	11.01	98.19	1.81			96.56	3.44	87.76	12.24	98.83	1.17	92.1 ± 1.56	92.1 ± 1.56	92.1 ± 1.56	97.02 ± 0.81	97.02 ± 0.81	97.02 ± 0.81	
Nc1c(O)cccc1C(=O)CC(N)C(=O)O (racemic) [3-hydroxy-DL-kynurenine, 3-Hydroxy-DL-kynurenine]	87.31	12.69	86.39	13.61	91.76	8.24	87.48 ± 1.65	87.48 ± 1.65	92.55	7.45	83.68	16.32	91.34	8.66							Luminescence intensity (%), Phenformin (100 μM) − ([1]; no phenformin): 87.48 ± 1.65 %; Luminescence intensity (%), Berberine (10 μM) − ([2]; no berberine): 91.52 ± 1.46 %; Luminescence intensity (%), Linezolid (200 μM) − ([2]; no linezolid): 91.52 ± 1.46 %; Luminescence intensity (%), Phenformin (100 μM) − ([2]; no phenformin): 91.52 ± 1.46 %
C=C(OP(=O)([O-])O)C(=O)O.O.[Na+] [Phospho(enol)pyruvic acid monosodium salt hydrate]	93.05	6.95	89.30	10.70	91.45	8.55	94.55 ± 1.37	94.55 ± 1.37	90.07	9.93	92.96	7.04	94.91	5.09							Luminescence intensity (%), Phenformin (100 μM) − ([1]; no phenformin): 94.55 ± 1.37 %; Luminescence intensity (%), Berberine (10 μM) − ([2]; no berberine): 100.07 ± 1.80^ %; Luminescence intensity (%), Linezolid (200 μM) − ([2]; no linezolid): 100.07 ± 1.80^ %; Luminescence intensity (%), Phenformin (100 μM) − ([2]; no phenformin): 100.07 ± 1.80^ %
CCCNC(=O)NS(=O)(=O)c1ccc(Cl)cc1 [Chlorpropamide]	102.38	−2.38	90.11	9.89	96.68	3.32			90.69	9.31	86.81	13.19	94.87	5.13	92.4 ± 1.05	92.4 ± 1.05	92.4 ± 1.05	97 ± 1.24	97 ± 1.24	97 ± 1.24	
CCN(CC)C(=S)SSC(=S)N(CC)CC [Disulfiram]	69.16	30.84	87.16	12.84	78.21	21.79		93.39 ± 2.64	75.67	24.33	80.93	19.07	90.83	9.17	93.4 ± 2.64	93.4 ± 2.64	93.4 ± 2.64	86.1 ± 1.66	86.1 ± 1.66	86.1 ± 1.66	
